From PubChem BioAssay AID330 (DTP/NCI, 2004)
Values joined by “and” are separate entries in the source; they are usually repeats but may differ in a detail not shown here. Equal values may be shown once. Toxic doses and inconclusive results are not listed. The calls were made as follows: active = survival T/C of 150% or more; inactive = T/C below 125% in these data.

Tested on: P388 leukemia ip, CD2F1 mice, survival T/C
Experiment: NCI In Vivo Anticancer Drug Screen. Data for tumor model P388 Leukemia (intraperitoneal) in CD2F1 (CDF1) mice
Settings: endpoint: median survival time, higher = longer survival
Procedure, shortened: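 Mice carrying the transplanted tumor received test compound or vehicle. Survival was recorded in each group, and the value is the treated-group measurement divided by that of the vehicle-treated control group.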

[1] = dose: 50.0 mg/kg/injection, schedule: Q01DX005 (ip), vehicle: Klucel (hydroxypropylcellulose) (HPC)
[2] = dose: 100.0 mg/kg/injection, schedule: Q01DX005 (ip), vehicle: Klucel (hydroxypropylcellulose) (HPC)
[3] = dose: 200.0 mg/kg/injection, schedule: Q01DX005 (ip), vehicle: Klucel (hydroxypropylcellulose) (HPC)
[4] = dose: 50.0 mg/kg/injection, schedule: Q01DX005 (ip), vehicle: saline with Tween-80
[5] = dose: 100.0 mg/kg/injection, schedule: Q01DX005 (ip), vehicle: saline with Tween-80
[6] = dose: 200.0 mg/kg/injection, schedule: Q01DX005 (ip), vehicle: saline with Tween-80
[7] = dose: 60.0 mg/kg/injection, schedule: Q01DX005 (ip), vehicle: Klucel (hydroxypropylcellulose) (HPC)
[8] = dose: 120.0 mg/kg/injection, schedule: Q01DX005 (ip), vehicle: Klucel (hydroxypropylcellulose) (HPC)
[9] = dose: 240.0 mg/kg/injection, schedule: Q01DX005 (ip), vehicle: Klucel (hydroxypropylcellulose) (HPC)
[10] = dose: 100.0 mg/kg/injection, schedule: Q01DX001 (ip), vehicle: saline with Tween-80
[11] = dose: 50.0 mg/kg/injection, schedule: Q01DX009 (ip), vehicle: saline
[12] = dose: 100.0 mg/kg/injection, schedule: Q01DX009 (ip), vehicle: saline
[13] = dose: 200.0 mg/kg/injection, schedule: Q01DX009 (ip), vehicle: saline
[14] = dose: 50.0 mg/kg/injection, schedule: Q01DX005 (ip), vehicle: saline
[15] = dose: 100.0 mg/kg/injection, schedule: Q01DX005 (ip), vehicle: saline
[16] = dose: 200.0 mg/kg/injection, schedule: Q01DX005 (ip), vehicle: saline

Measured: T/C

CC(C)CCC(=O)c1ccoc1
inactive: dose: 0.46 mg/kg/injection, schedule: Q01DX005 (ip), vehicle: saline with Tween-80 103 % of control | dose: 0.93 mg/kg/injection, schedule: Q01DX005 (ip), vehicle: saline with Tween-80 97 % of control | dose: 1.87 mg/kg/injection, schedule: Q01DX005 (ip), vehicle: saline with Tween-80 97 % of control | dose: 3.75 mg/kg/injection, schedule: Q01DX005 (ip), vehicle: saline with Tween-80 89 % of control

O=C(O)c1cccc2c1C(=O)N(c1ccc3c(c1)Cc1ccccc1-3)C2=O
inactive: dose: 25.0 mg/kg/injection, schedule: Q01DX005 (ip), vehicle: Klucel (hydroxypropylcellulose) (HPC) 97 % of control | [1] 98 % of control | [2] 95 % of control | [3] 96 % of control

CC(C)NC(=O)OCc1c(COC(=O)NC(C)C)c(S(C)(=O)=O)n2c1CCC2
inactive: dose: 25.0 mg/kg/injection, schedule: Q01DX005 (ip), vehicle: saline with Tween-80 89 % of control | [4] 86 % of control | [5] 88 % of control | [6] 91 % of control

COc1ccc(C(=O)C(=O)c2ccccc2)cc1
inactive: [7] 105 % of control | [8] 100 % of control | [9] 98 % of control

CCCCCCCCCCCCCCCCNC(=S)N=Nc1cc(C(C)C)c(NNC(=S)NCCCCCCCCCCCCCCCC)cc1C
inactive: [1] 92 % of control | [2] 99 % of control | [3] 97 % of control

COc1ccccc1C1OC(c2ccccc2OC)C2CCN(C)C2(C)O1 (stereo not drawn)
inactive: dose: 100.0 mg/kg/injection, schedule: Q04DX002 (ip), vehicle: saline with Tween-80 92 % of control | dose: 200.0 mg/kg/injection, schedule: Q04DX002 (ip), vehicle: saline with Tween-80 91 % of control | dose: 400.0 mg/kg/injection, schedule: Q04DX002 (ip), vehicle: saline with Tween-80 101 % of control

O=[N+]([O-])c1cnc(Sc2ccncn2)s1
inactive: dose: 1.56 mg/kg/injection, schedule: Q01DX009 (ip), vehicle: saline 103 % of control | dose: 3.12 mg/kg/injection, schedule: Q01DX009 (ip), vehicle: saline 108 % of control | dose: 6.25 mg/kg/injection, schedule: Q01DX009 (ip), vehicle: saline 100 % of control and 87 % of control | dose: 12.5 mg/kg/injection, schedule: Q01DX009 (ip), vehicle: saline 93 % of control

O=S1(=O)CC(N2CCOCC2)C2=C(O1)c1sc(-c3ccccc3)nc1CC2 (stereo not drawn)
inactive: [1] 104 % of control | [2] 105 % of control | [3] 98 % of control

CCCCCCCCCC(=O)c1cc(O)c(C(=O)CCCCCCCCC)cc1O
inactive: [7] 103 % of control | [8] 104 % of control | [9] 105 % of control

CCOC(=O)C1n2c(=O)n(-c3ccc(Cl)cc3)c(=O)n21
inactive: [1] 96 % of control | [2] 87 % of control | [3] 92 % of control

O=C1N/C(=N/O)CC(NO)N1 (stereo not drawn)
inactive: dose: 100.0 mg/kg/injection, schedule: Q04DX002 (ip), vehicle: Klucel (hydroxypropylcellulose) (HPC) 97 % of control | dose: 200.0 mg/kg/injection, schedule: Q04DX002 (ip), vehicle: Klucel (hydroxypropylcellulose) (HPC) 100 % of control | dose: 400.0 mg/kg/injection, schedule: Q04DX002 (ip), vehicle: Klucel (hydroxypropylcellulose) (HPC) 102 % of control

COc1ccc(C(=O)NCCN2CCN3Cc4[nH]c5ccccc5c4CC3C2)cc1 (stereo not drawn)
inactive: dose: 25.0 mg/kg/injection, schedule: Q01DX001 (ip), vehicle: saline with Tween-80 95 % of control | dose: 50.0 mg/kg/injection, schedule: Q01DX001 (ip), vehicle: saline with Tween-80 97 % of control | [10] 95 % of control and 98 % of control

CN(C)CCC(=O)c1ccc(Cl)c(Cl)c1
inactive: dose: 50.0 mg/kg/injection, schedule: Q01DX009 (ip), vehicle: Klucel (hydroxypropylcellulose) (HPC) 107 % of control | [11] 108 % of control | dose: 100.0 mg/kg/injection, schedule: Q01DX009 (ip), vehicle: Klucel (hydroxypropylcellulose) (HPC) 109 % of control | [12] 110 % of control | [13] 109 % of control

C=CC(C)(C)C1Oc2cc(OC)ccc2C(=O)C1c1ccc(OC)c(OC)c1O (stereo not drawn)
inactive: dose: 100.0 mg/kg/injection, schedule: Q04DX003 (ip), vehicle: Klucel (hydroxypropylcellulose) (HPC) 99 % of control | dose: 200.0 mg/kg/injection, schedule: Q04DX003 (ip), vehicle: Klucel (hydroxypropylcellulose) (HPC) 98 % of control | dose: 400.0 mg/kg/injection, schedule: Q04DX003 (ip), vehicle: Klucel (hydroxypropylcellulose) (HPC) 96 % of control

CNc1ccccc1CO
inactive: dose: 100.0 mg/kg/injection, schedule: Q04DX003 (ip), vehicle: other 95 % of control | dose: 200.0 mg/kg/injection, schedule: Q04DX003 (ip), vehicle: other 95 % of control | dose: 400.0 mg/kg/injection, schedule: Q04DX003 (ip), vehicle: other 90 % of control

O=S(=O)(c1ccccc1)N1CC2(CN(S(=O)(=O)c3ccccc3)c3ccccc31)CN(S(=O)(=O)c1ccccc1)c1ccccc1N(S(=O)(=O)c1ccccc1)C2
inactive: [10] 90 % of control | dose: 200.0 mg/kg/injection, schedule: Q01DX001 (ip), vehicle: saline with Tween-80 87 % of control | dose: 400.0 mg/kg/injection, schedule: Q01DX001 (ip), vehicle: saline with Tween-80 88 % of control

NCC(=O)NC(CCCN=C(N)N)C(=O)O (stereo not drawn)
inactive: [14] 96 % of control | [15] 99 % of control | [16] 99 % of control

C[C@@H]1CC[C@]2(C)CC[C@]3(C)C(=CC[C@@H]4[C@@]5(C)CC[C@@H](OC(=O)c6ccc(O)cc6)C(C)(C)[C@@H]5C[C@H](O)[C@]43C)[C@@H]2[C@H]1C(=O)O
inactive: dose: 12.5 micrograms/kg/injection, schedule: Q01DX009 (ip), vehicle: saline with Tween-80 117 % of control | dose: 25.0 micrograms/kg/injection, schedule: Q01DX009 (ip), vehicle: saline with Tween-80 117 % of control | dose: 50.0 micrograms/kg/injection, schedule: Q01DX009 (ip), vehicle: saline with Tween-80 118 % of control
active: dose: 0.2 mg/kg/injection, schedule: Q01DX009 (ip), vehicle: saline with Tween-80 159 % of control | dose: 400.0 micrograms/kg/injection, schedule: Q01DX009 (ip), vehicle: saline with Tween-80 163 % of control

Cl/N=C1/C=CC=C/C1=N/Cl
inactive: [14] 106 % of control | [15] 104 % of control | [16] 101 % of control

O=S(=O)(c1ccc(Cl)cc1)S(=O)(=O)c1ccc(Cl)cc1
inactive: [11] 92 % of control | [12] 97 % of control | [13] 101 % of control

CCCOc1ccc2c(NCCCCNc3c4ccccc4nc4cc(OCCC)ccc34)c3ccccc3nc2c1
inactive: dose: 0.62 mg/kg/injection, schedule: Q01DX009 (ip), vehicle: other 98 % of control | dose: 1.25 mg/kg/injection, schedule: Q01DX009 (ip), vehicle: other 109 % of control | dose: 2.5 mg/kg/injection, schedule: Q01DX009 (ip), vehicle: other 98 % of control | dose: 5.0 mg/kg/injection, schedule: Q01DX009 (ip), vehicle: other 107 % of control | dose: 10.0 mg/kg/injection, schedule: Q01DX009 (ip), vehicle: other 107 % of control

CC1=NN(c2ccc(S(=O)(=O)O)cc2)C(=O)/C1=C/c1ccc(Cl)cc1
inactive: dose: 50.0 mg/kg/injection, schedule: Q04DX003 (ip), vehicle: saline sonified 100 % of control | dose: 100.0 mg/kg/injection, schedule: Q04DX003 (ip), vehicle: saline sonified 100 % of control | dose: 200.0 mg/kg/injection, schedule: Q04DX003 (ip), vehicle: saline sonified 95 % of control

CC(CCO)CCC(Br)C(C)(C)Br (stereo not drawn)
inactive: [14] 103 % of control | [15] 105 % of control | [16] 100 % of control

CC(NC(=O)C(C)NC(=O)OC(C)(C)C)C(=O)O (stereo not drawn)
inactive: [4] 100 % of control | [5] 101 % of control | [6] 101 % of control

CSC1(c2ccccc2NS(=O)(=O)c2ccccc2)SCCS1
inactive: dose: 50.0 mg/kg/injection, schedule: Q04DX003 (ip), vehicle: saline 102 % of control | dose: 100.0 mg/kg/injection, schedule: Q04DX003 (ip), vehicle: saline 92 % of control | dose: 200.0 mg/kg/injection, schedule: Q04DX003 (ip), vehicle: saline 89 % of control

NC(=O)N(CCO)/N=C/C=C/c1ccc([N+](=O)[O-])o1
inactive: [1] 106 % of control | [2] 115 % of control | [3] 108 % of control
